Experiment [1] has as its system PC3 cells. The experiment can be described thus: EB1 Comet (microtubule disruption) assay. Particulars: Homo sapiens, read-out: EB1 pLAC (converted). It is filed as cell-based, human. Put shortly:
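PC3 human prostate cancer cells exposed to compound for 1 h at 37 °C (0.6% DMSO final), methanol-fixed, immunostained for Eb1 and imaged at 20×. Value is the lowest active concentration (LAC): the concentration at which Eb1 foci are absent in at least 50% of treated cells.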

For experiment [2], the target named is T1, TANK-2 enzyme (Homo sapiens, UniProt Q9H2K2).
T1 construct: made in house
T1 sequence (Q9H2K2 1-1166): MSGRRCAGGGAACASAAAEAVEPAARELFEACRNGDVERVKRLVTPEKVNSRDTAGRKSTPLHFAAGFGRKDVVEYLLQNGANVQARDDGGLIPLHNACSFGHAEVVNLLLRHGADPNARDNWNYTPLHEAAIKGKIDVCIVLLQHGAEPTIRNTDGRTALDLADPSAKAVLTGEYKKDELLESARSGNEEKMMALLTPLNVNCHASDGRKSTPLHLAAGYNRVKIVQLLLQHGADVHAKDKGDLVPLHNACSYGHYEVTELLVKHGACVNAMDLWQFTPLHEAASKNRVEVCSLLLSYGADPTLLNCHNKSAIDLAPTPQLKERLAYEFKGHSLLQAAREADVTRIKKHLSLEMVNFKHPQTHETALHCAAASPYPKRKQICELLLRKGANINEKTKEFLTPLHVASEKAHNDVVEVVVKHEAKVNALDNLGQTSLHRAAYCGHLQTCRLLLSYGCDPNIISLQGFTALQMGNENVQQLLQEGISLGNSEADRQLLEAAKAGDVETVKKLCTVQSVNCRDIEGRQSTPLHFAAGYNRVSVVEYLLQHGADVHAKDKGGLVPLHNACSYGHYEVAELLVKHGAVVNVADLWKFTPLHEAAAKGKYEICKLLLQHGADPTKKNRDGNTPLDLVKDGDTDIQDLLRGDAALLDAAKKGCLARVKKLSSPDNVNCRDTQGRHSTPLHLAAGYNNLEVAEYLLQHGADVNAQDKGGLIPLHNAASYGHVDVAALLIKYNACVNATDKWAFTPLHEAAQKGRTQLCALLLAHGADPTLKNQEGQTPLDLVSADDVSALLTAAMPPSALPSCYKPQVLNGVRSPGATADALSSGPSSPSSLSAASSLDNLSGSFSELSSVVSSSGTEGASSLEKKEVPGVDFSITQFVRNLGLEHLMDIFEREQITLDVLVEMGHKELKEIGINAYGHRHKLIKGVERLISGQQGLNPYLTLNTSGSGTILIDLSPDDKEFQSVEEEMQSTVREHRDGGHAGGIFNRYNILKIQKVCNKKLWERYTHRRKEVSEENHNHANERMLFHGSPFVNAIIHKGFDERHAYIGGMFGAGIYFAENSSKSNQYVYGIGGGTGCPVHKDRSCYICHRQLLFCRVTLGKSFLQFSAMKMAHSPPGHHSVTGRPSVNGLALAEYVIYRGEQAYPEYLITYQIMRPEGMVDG
The experiment is described as follows: In vitro Scintillation Proximity Assay (SPA) for TANK-2 inhibitory activity. It is filed as biochemical. As to conditions: read-out: in vitro SPA assay TANK-2 pIC50 (converted). Put shortly: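 TANK-2 (8 μg/ml final) auto-poly(ADP-ribosyl)ation with [3H]-NAD+/NAD donor was run in Ni flash plates in Tris/HCl pH 7.4 buffer with DTT and MgCl2, 120 min at room temperature, then stopped with excess NAD and scintillation-counted. Blank-corrected cpm was expressed as % of enzyme control, and IC50 was linearly interpolated and reported as pIC50.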
Background: SPA uses beads or plates that emit light when radiolabelled molecules are held near them.

Read-outs that look alike come from different tables or passages of the source.

For `CCc1cc2ccc([C@](C)(C#N)Cc3ccccc3)cc2[nH]c1=O` (single isomer, unassigned) [Compound 45], the minimal effective concentration in experiment [1] (PC-3, 1 h, 1 hour treatment) was above 10 µM. In addition, the IC50 in experiment [2] is 25.1 nM. For `CCc1cc2ccc([C@@](C)(C#N)Cc3ccccc3)cc2[nH]c1=O` (single isomer, unassigned) [Compound 46] the same measures were 0.1 µM and 25.1 nM. Take `CCc1cc2ccc(C(C)(C#N)CC3COc4ccccc4O3)cc2[nH]c1=O` (single isomer, unassigned) [Compound 47]: the IC50 in experiment [2] was 316 nM.

In the case of `CCc1cc2ccc([C@](C)(C#N)Cc3nc(OC)cc(OC)n3)cc2[nH]c1=O` (single isomer, unassigned) [Compound 52], in experiment [1] (PC-3, 1 h, 1 hour treatment), the minimal effective concentration was 3.16 µM. In addition, the IC50 in experiment [2] is 200 nM.

Take `CCc1cc2ccc([C@@](C)(C#N)Cc3nc(OC)cc(OC)n3)cc2[nH]c1=O` (single isomer, unassigned) [Compound 53]: the minimal effective concentration in experiment [1] (PC-3, 1 h, 1 hour treatment) was 0.0316 µM. Moreover, the IC50 in experiment [2] is 158 nM. As to `CCc1cc2ccc(C(C)(C#N)Cc3cccc(C#C[Si](C)(C)C)c3)cc2[nH]c1=O` (stereo not drawn) [Compound 1], the minimal effective concentration in experiment [1] (PC-3, 1 h, 1 hour treatment) was 1 µM. Moreover, in experiment [2], the IC50 is 3980 nM. Regarding `CCc1cc2ccc(C(C)(C#N)Cc3cccc(CN(C)C)c3)cc2[nH]c1=O` (stereo not drawn) [Compound 7], the minimal effective concentration in experiment [1] (PC-3, 1 h, 1 hour treatment) was 3.16 µM. In addition, in experiment [2], the IC50 is 158 nM. `CCc1cc2ccc(C(C)(C#N)Cc3cccc(COC)c3)cc2[nH]c1=O` (stereo not drawn) [Compound 8]: in experiment [1] (PC-3, 1 h, 1 hour treatment), the minimal effective concentration is 0.316 µM. Besides, the IC50 in experiment [2] was 79.4 nM. For the molecule `CCc1cc2ccc(C(C)(C#N)Cc3cccc(CO)c3)cc2[nH]c1=O` (stereo not drawn) [Compound 9], the minimal effective concentration in experiment [1] (PC-3, 1 h, 1 hour treatment) was 1 µM. The IC50 in experiment [2] was 63.1 nM. With `CCc1cc2ccc(C(C#N)(Cc3ccccc3)CC3CC3)cc2[nH]c1=O` (stereo not drawn) [Compound 28], in experiment [2], the IC50 is 316 nM. Still for that read-out and setting: then `CC(C#N)(Cc1ccccc1)c1ccc2cc(CO)c(=O)[nH]c2c1` (stereo not drawn) [Compound 40], with 158 nM. For the molecule `CCc1cc2ccc(C(C)(C#N)Cc3c(F)ccc(C)c3F)cc2[nH]c1=O` (stereo not drawn) [Compound 41], in experiment [1] (PC-3, 1 h, 1 hour treatment), the minimal effective concentration was 0.316 µM. Further, the IC50 in experiment [2] is 79.4 nM. Consider `CCc1cc2ccc(C(C)(C#N)Cc3nnsc3Cl)cc2[nH]c1=O` (stereo not drawn) [Compound 42], for which the minimal effective concentration in experiment [1] (PC-3, 1 h, 1 hour treatment) is 0.1 µM. Besides, in experiment [2], the IC50 is 79.4 nM. Turning to `CCc1cc2ccc(C(C)(C#N)Cc3nc(OC)cc(OC)n3)cc2[nH]c1=O` (stereo not drawn) [Compound 43], the IC50 in experiment [2] was 158 nM. Same read-out and setting: with `CCc1cc2ccc(C(C)(C#N)Cc3ccccc3)cc2[nH]c1=O` (stereo not drawn) [Compound 44] the figure was 39.8 nM. As for `CCc1cc2ccc(C(C)(C#N)Cc3cccc(Br)c3)cc2[nH]c1=O` (stereo not drawn) [Compound 49], in experiment [1] (PC-3, 1 h, 1 hour treatment), the minimal effective concentration was 0.316 µM. Besides, the IC50 in experiment [2] is 31.6 nM.

For the molecule `CCOP(=O)(OCC)c1cccc(CC(C)(C#N)c2ccc3cc(CC)c(=O)[nH]c3c2)c1` (stereo not drawn) [Compound 50], the minimal effective concentration in experiment [1] (PC-3, 1 hour treatment) was 0.316 µM. For the same molecule, the IC50 in experiment [2] is 200 nM. Turning to `CCc1cc2ccc(C(C)(C#N)Cc3cccc(C#N)c3)cc2[nH]c1=O` (stereo not drawn) [Compound 51], the minimal effective concentration in experiment [1] (PC-3, 1 h, 1 hour treatment) was 0.316 µM. The IC50 in experiment [2] was 39.8 nM. For `CCc1cc2ccc(C(C)(C#N)CCOc3ccc([N+](=O)[O-])cc3)cc2[nH]c1=O` (stereo not drawn) [Compound 54] the same measures were 0.316 µM and 158 nM.

Consider `CCc1cc2ccc(C(C)(C#N)Cc3cccc(CN4CCN(C)CC4)c3)cc2[nH]c1=O` (stereo not drawn) [Compound 57], for which, in experiment [2], the IC50 was 126 nM.

As to `CCc1cc2ccc(C(C)(C#N)Cc3cccc(CN4CCOCC4)c3)cc2[nH]c1=O` (stereo not drawn) [Compound 58], in experiment [1] (PC-3, 1 h, 1 hour treatment), the minimal effective concentration was 3.16 µM. The IC50 in experiment [2] is 316 nM.

Regarding `CCc1cc2ccc(C(C)(C#N)Cc3cccc(CNC)c3)cc2[nH]c1=O` (stereo not drawn) [Compound 59], in experiment [1] (PC-3, 1 h, 1 hour treatment), the minimal effective concentration is 10 µM. In experiment [2], the IC50 was 79.4 nM.

As for `CCc1cc2ccc(C(C)(C#N)Cc3cccc(CNCCOC)c3)cc2[nH]c1=O` (stereo not drawn) [Compound 60], in experiment [2], the IC50 is 63.1 nM.

On to `CCc1cc2ccc(C(C)(C#N)Cc3cccc(CNCCN4CCOCC4)c3)cc2[nH]c1=O` (stereo not drawn) [Compound 61], for which the IC50 in experiment [2] was 100 nM.

In the case of `CCc1cc2ccc(C(C)(C#N)Cc3cccc(C(=O)NCCOC)c3)cc2[nH]c1=O` (stereo not drawn) [Compound 62], in experiment [2], the IC50 was 79.4 nM. In the case of `CCc1cc2ccc(C(C)(C#N)Cc3cccc(C(=O)N(C)C)c3)cc2[nH]c1=O` (stereo not drawn) [Compound 63], in experiment [1] (PC-3, 1 h, 1 hour treatment), the minimal effective concentration was 3.16 µM. The IC50 in experiment [2] is 200 nM. Take `CCc1cc2ccc(C(C)(C#N)Cc3cccc(N4CCNCC4)c3)cc2[nH]c1=O` (stereo not drawn) [Compound 64]: the IC50 in experiment [2] was 25.1 nM. Take `CCc1cc2ccc(C(C)(C#N)Cc3cccc(N4CCCCC4)c3)cc2[nH]c1=O` (stereo not drawn) [Compound 65]: in experiment [2], the IC50 was 39.8 nM.

Take `CCc1cc2ccc(C(C)(C#N)Cc3cccc(N4CCN(C)CC4)c3)cc2[nH]c1=O` (stereo not drawn) [Compound 66]: the IC50 in experiment [2] is 31.6 nM. For the molecule `CCc1cc2ccc(C(C)(C#N)Cc3cccc(OCC4CC4)c3)cc2[nH]c1=O` (stereo not drawn) [Compound 67], in experiment [1] (PC-3, 1 h, 1 hour treatment), the minimal effective concentration was 0.316 µM. Moreover, the IC50 in experiment [2] was 126 nM. Consider `CCc1cc2ccc(C(C)(C#N)Cc3cccc(OCCCN4CCOCC4)c3)cc2[nH]c1=O` (stereo not drawn) [Compound 68], for which the IC50 in experiment [2] is 63.1 nM. Still for that read-out and setting: then `CCc1cc2ccc(C(C)(C#N)Cc3cccc(OCCCN4CCN(C)CC4)c3)cc2[nH]c1=O` (stereo not drawn) [Compound 69], with 63.1 nM. Turning to `Cc1cc2ccc(C(C)(C#N)Cc3noc(-c4cccc(C(F)(F)F)c4)n3)cc2[nH]c1=O` (stereo not drawn) [Compound 70], the minimal effective concentration in experiment [1] (PC-3, 1 h, 1 hour treatment) was 3.16 µM. The IC50 in experiment [2] was 200 nM. The matching figures for `Cc1cc2ccc(C(C)(C#N)Cc3cc4ccccc4s3)cc2[nH]c1=O` (stereo not drawn) [Compound 71]: 1 µM and 251 nM.

On to `Cc1cc2ccc(C(C)(C#N)Cc3ccc(Cl)s3)cc2[nH]c1=O` (stereo not drawn) [Compound 72], for which, in experiment [1] (PC-3, 1 h, 1 hour treatment), the minimal effective concentration is 0.316 µM. In addition, in experiment [2], the IC50 was 251 nM. Regarding `Cc1cc2ccc(C(C)(C#N)Cc3ccc(C(F)(F)F)o3)cc2[nH]c1=O` (stereo not drawn) [Compound 73], the minimal effective concentration in experiment [1] (PC-3, 1 h, 1 hour treatment) is 1 µM. Besides, in experiment [2], the IC50 is 251 nM. Consider `Cc1cc2ccc(C(C)(C#N)Cc3cccc4cccnc34)cc2[nH]c1=O` (stereo not drawn) [Compound 74], for which the minimal effective concentration in experiment [1] (PC-3, 1 h, 1 hour treatment) was 3.16 µM. Moreover, in experiment [2], the IC50 was 126 nM. Turning to `Cc1cc2ccc(C(C)(C#N)Cc3nc4ccccc4s3)cc2[nH]c1=O` (stereo not drawn) [Compound 75], the minimal effective concentration in experiment [1] (PC-3, 1 h, 1 hour treatment) was 0.316 µM. Besides, the IC50 in experiment [2] was 251 nM. As to `CCc1cc2ccc(C(C)(C#N)Cc3c(C)c(C)cc(C)c3C)cc2[nH]c1=O` (stereo not drawn) [Compound 88], the IC50 in experiment [2] is 200 nM.

`CCc1cc2ccc(C(C)(C#N)Cc3c(C)c(C)c(C)c(C)c3C)cc2[nH]c1=O` (stereo not drawn) [Compound 89]: the IC50 in experiment [2] was 316 nM. The same measure, in the same setting: then `CCc1cc2ccc(C(C)(C#N)Cc3nncn3C)cc2[nH]c1=O` (stereo not drawn) [Compound 93], with 398 nM; and `CCc1cc2ccc(C(C)(C#N)Cc3cccc4nnn(C)c34)cc2[nH]c1=O` (stereo not drawn) [Compound 94], with 251 nM. Same read-out and setting: with `CCc1cc2ccc(C(C)(C#N)Cc3nn(C)c4ccccc34)cc2[nH]c1=O` (stereo not drawn) [Compound 95] the figure was 79.4 nM; with `CCc1cc2ccc(C(C)(C#N)Cc3cn4ccccc4n3)cc2[nH]c1=O` (stereo not drawn) [Compound 96], 100 nM. The same measure, in the same setting: then `CCc1cc2ccc(C(C)(C#N)Cc3cccnc3)cc2[nH]c1=O` (stereo not drawn) [Compound 97], with 63.1 nM; and `CCc1cc2ccc(C(C)(C#N)Cc3ccncc3)cc2[nH]c1=O` (stereo not drawn) [Compound 98], with 31.6 nM; and `CCc1cc2ccc(C(C)(C#N)CCOc3ccccc3C#N)cc2[nH]c1=O` (stereo not drawn) [Compound 276], with 79.4 nM. Regarding `CCc1cc2ccc(C(C)(C#N)CCOc3cc(Cl)c(Cl)cc3Cl)cc2[nH]c1=O` (stereo not drawn) [Compound 277], in experiment [2], the IC50 was 2000 nM.

For the origin of these results see patent US8778966B2, “Quinolinone derivatives as PARP and tank inhibitors” (Janssen Pharmaceutica, NV, priority 2007, dated 2014).
